Test [1] relates to NLRP3 inflammasome (IL-1β production in THP-1 cells). Briefly: IL-1β TR-FRET Assay (percentage of inhibition at 300 nM, 6 μM or 10 μM). The format is cell-based, human. The conditions noted are these: Homo sapiens, LPS priming, ATP activation; for inhibition at 0.3 µM: THP-1, 300 nM, read-out: IL-1β inhibitory rate at 300 nM (%); for inhibition at 6 µM: THP-1, 6 μM, read-out: IL-1β inhibitory rate at 6 μM (%). The method in brief:
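Percent inhibition of IL-1β used DMSO wells as 0% and 3 μM MCC-950 wells as full inhibition, with supernatant read by HTRF. Beforehand, IFN-γ-differentiated (25 ng/mL, 24 h), LPS-primed (50 ng/mL, 24 h) THP-1 cells received compound 30 min before inflammasome activation by 20 mM ATP for 2 h.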
A general note: In TR-FRET formats the signal depends on donor and acceptor labels being close together.

The subject of test [2] is TNF-α (NF-κB pathway, THP-1 cells). Briefly: TNF-α Assay (IC50). The conditions noted are these: Homo sapiens, 600 ng/mL LPS, 3 hours. The format is cell-based, human. Put shortly:
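Supernatant TNF-α quantified by ELISA after 3 h stimulation with 600 ng/mL LPS at 37 °C, following 30 min compound preincubation. Cells: IFN-differentiated (25 ng/mL, 24 h) THP-1 macrophages, 40,000/well, serum-free. IC50 by sigmoidal fit of % inhibition, with TPCA-1 as 100% control.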

By IC50 is commonly meant the concentration that inhibits the measured activity by half. The low end stands for higher potency, the high end for lower potency. Take `CO[C@@H]1CCCC[C@@H]1c1nc2nn(-c3c(C)cc(C)cc3O)cc2c(=O)[nH]1` (racemic) [Example 12, racemic mixture of 2-(2-hydroxy-4,6-dimethylphenyl)-6-[(1R,2R)-2-methoxycyclohexyl]-2,5-dihydro-4H-pyrazolo[3,4-d]pyrimidin-4-one and 2-(2-hydroxy-4,6-dimethylphenyl)-6-[(1S,2S)-2-methoxycyclohexyl]-2,5-dihydro-4H-pyrazolo[3,4-d]pyrimidin-4-one]: the inhibition at 0.3 µM in test [1] was determined as 99%. The compound also came in with a half-inhibitory concentration (IC50) in test [2] of 3.4 µM.
Take `CCOc1nc2nn(-c3c(F)cc(C)cc3OC(F)F)cc2c(=O)[nH]1` [Example 108]: the inhibition at 0.3 µM in test [1] worked out at 98%. The compound also came in with a concentration for half-maximal inhibition (IC50) in test [2] greater than 30 µM.
For `Cc1cc(C)c(-n2cc3c(=O)[nH]c(-c4ccccc4F)nc3n2)c(O)c1` [Example 20, 6-(2-fluorophenyl)-2-(2-hydroxy-4,6-dimethylphenyl)-2,5-dihydro-4H-pyrazolo[3,4-d]pyrimidin-4-one], in that order: 100% and greater than 30 µM.
Regarding `CCOc1nc2nn(-c3c(C)cc(OC(F)F)nc3C)cc2c(=O)[nH]1` [Example 226, 2-[6-(difluoromethoxy)-2,4-dimethylpyridin-3-yl]-6-ethoxy-2,5-dihydro-4H-pyrazolo[3,4-d]pyrimidin-4-one], the inhibition at 6 µM in test [1] amounted to 106%. For the same compound, the IC50 in test [2] was greater than 30 µM.
As to `Cc1cc(C)c(-n2cc3c(=O)[nH]c(-c4cc(C)ncn4)nc3n2)c(O)c1` [Example 58, 2-(2-hydroxy-4,6-dimethylphenyl)-6-(6-methylpyrimidin-4-yl)-2,5-dihydro-4H-pyrazolo[3,4-d]pyrimidin-4-one], in test [1], the inhibition at 0.3 µM stood at 100%. The IC50 in test [2] was greater than 30 µM.
In the case of `Cc1cc(C)c(-n2cc3c(=O)[nH]c(OC(C)C(F)(F)F)nc3n2)c(O)c1` (stereo not drawn) [Example 43, 2-(2-hydroxy-4,6-dimethylphenyl)-6-[(1,1,1-trifluoropropan-2-yl)oxy]-2,5-dihydro-4H-pyrazolo[3,4-d]pyrimidin-4-one], the inhibition at 0.3 µM in test [1] was determined as 98%. The IC50 in test [2] was greater than 30 µM.
As for `COC1(c2nc3nn(-c4c(C)cc(C)cc4O)cc3c(=O)[nH]2)CCC1` [Example 35, 2-(2-hydroxy-4,6-dimethylphenyl)-6-(1-methoxycyclobutyl)-2,5-dihydro-4H-pyrazolo[3,4-d]pyrimidin-4-one], the inhibition at 0.3 µM in test [1] worked out at 96%. Besides, the 50% inhibitory concentration (IC50) in test [2] is greater than 30 µM.
Regarding `Cc1cc(-c2nc3nn(-c4c(C)cc(C5CC5)cc4C)cc3c(=O)[nH]2)no1` [Example 274, 2-(4-cyclopropyl-2,6-dimethylphenyl)-6-(5-methyl-1,2-oxazol-3-yl)-2,5-dihydro-4H-pyrazolo[3,4-d]pyrimidin-4-one], the inhibition at 6 µM in test [1] was found to be 102%. For the same compound, the IC50 in test [2] is greater than 30 µM.
In the case of `CCOc1nc2nn(-c3c(F)cc(C4CC4)cc3Cl)cc2c(=O)[nH]1` [Example 137, 2-(2-chloro-4-cyclopropyl-6-fluorophenyl)-6-ethoxy-2,5-dihydro-4H-pyrazolo[3,4-d]pyrimidin-4-one], the inhibition at 0.3 µM in test [1] turned out to be 98%. Besides, the IC50 in test [2] is greater than 30 µM.
As to `Cc1cc(C2CC2)cc(C)c1-n1cc2c(=O)[nH]c(C3CC3)nc2n1` [Example 167, 6-cyclopropyl-2-(4-cyclopropyl-2,6-dimethylphenyl)-2,5-dihydro-4H-pyrazolo[3,4-d]pyrimidin-4-one], the inhibition at 0.3 µM in test [1] is 98%. The same compound returned an IC50 in test [2] greater than 30 µM.
For `CO[C@H](C)COc1nc2nn(-c3c(F)cc(C4CC4)cc3C(F)F)cc2c(=O)[nH]1` [Example 200, 2-[4-cyclopropyl-2-(difluoromethyl)-6-fluorophenyl]-6-[(2R)-2-methoxypropoxy]-2,5-dihydro-4H-pyrazolo[3,4-d]pyrimidin-4-one], in that order: 98% and greater than 30 µM.
On to `Cc1cc(C)c(-n2cc3c(=O)[nH]c(CC4CCCO4)nc3n2)c(O)c1` (stereo not drawn) [Example 33, 2-(2-hydroxy-4,6-dimethylphenyl)-6-[(oxolan-2-yl)methyl]-2,5-dihydro-4H-pyrazolo[3,4-d]pyrimidin-4-one], for which the inhibition at 0.3 µM in test [1] came to 97%. The same compound yielded an IC50 in test [2] greater than 30 µM.
Regarding `CCCCc1nc2nn(-c3c(C)cc(C)cc3O)cc2c(=O)[nH]1` [Example 17, 6-butyl-2-(2-hydroxy-4,6-dimethylphenyl)-2,5-dihydro-4H-pyrazolo[3,4-d]pyrimidin-4-one], the inhibition at 0.3 µM in test [1] is 99%. In addition, the IC50 in test [2] is greater than 30 µM.
For the compound `COC1(c2nc3nn(-c4c(C)cc(C5CC5)cc4C)cc3c(=O)[nH]2)CCC1` [Example 277, 2-(4-cyclopropyl-2,6-dimethylphenyl)-6-(1-methoxycyclobutyl)-2,5-dihydro-4H-pyrazolo[3,4-d]pyrimidin-4-one], in test [1], the inhibition at 6 µM was determined as 96%. For the same compound, the IC50 in test [2] is greater than 30 µM.
Take `COCCOc1nc2nn(-c3c(C)cc(C4CC4)cc3CC(F)(F)F)cc2c(=O)[nH]1` [Example 231, 2-[4-cyclopropyl-2-methyl-6-(2,2,2-trifluoroethyl)phenyl]-6-(2-methoxyethoxy)-2,5-dihydro-4H-pyrazolo[3,4-d]pyrimidin-4-one]: the inhibition at 6 µM in test [1] was determined as 90%. The half-inhibitory concentration (IC50) in test [2] was greater than 30 µM.
In the same order, the values of `Cc1cc(C2(F)CC2)cc(C)c1-n1cc2c(=O)[nH]c(COC(F)F)nc2n1` [Example 263, 6-[(difluoromethoxy)methyl]-2-[4-(1-fluorocyclopropyl)-2,6-dimethylphenyl]-2,5-dihydro-4H-pyrazolo[3,4-d]pyrimidin-4-one] are 104% and greater than 30 µM.
`Cc1cc(C2CC2)cc(C)c1-n1cc2c(=O)[nH]c(COC(F)(F)F)nc2n1` [Example 202, 2-(4-cyclopropyl-2,6-dimethylphenyl)-6-[(trifluoro-methoxy)methyl]-2,5-dihydro-4H-pyrazolo[3,4-d]pyrimidin-4-one]: in test [1], the inhibition at 0.3 µM came to 97%. Further, the half-maximal inhibitory concentration (IC50) in test [2] was greater than 30 µM.
Regarding `CCOc1nc2nn(-c3c(C)cc(Br)cc3-n3cccn3)cc2c(=O)[nH]1` [Example 144, 2-[4-bromo-2-methyl-6-(1H-pyrazol-1-yl)phenyl]-6-ethoxy-2,5-dihydro-4H-pyrazolo[3,4-d]pyrimidin-4-one], in test [1], the inhibition at 0.3 µM was determined as 96%. This compound yielded a half-maximal inhibitory concentration (IC50) in test [2] greater than 30 µM.
Consider `O=c1[nH]c(C2CCOC2)nc2nn(-c3c(F)cc(C4CC4)cc3C(F)F)cc12` (stereo not drawn) [Example 296, 2-[4-cyclopropyl-2-(difluoromethyl)-6-fluorophenyl]-6-(oxolan-3-yl)-2,5-dihydro-4H-pyrazolo [3,4-d]pyrimidin-4-one], for which the inhibition at 6 µM in test [1] worked out at 104%. In addition, the IC50 in test [2] is greater than 30 µM.
For `CCOc1nc2nn(-c3c(F)cc(C)cc3OC)cc2c(=O)[nH]1` [Example 93, 6-ethoxy-2-(2-fluoro-6-methoxy-4-methylphenyl)-2,5-dihydro-4H-pyrazolo[3,4-d]pyrimidin-4-one], the inhibition at 0.3 µM in test [1] turned out to be 80%. In addition, the IC50 in test [2] was greater than 30 µM.
As for `CCOc1nc2nn(-c3c(C)cc(C4CC4(F)F)cc3F)cc2c(=O)[nH]1` (racemic) [Example 112, 2-[4-(2,2-difluorocyclopropyl)-2-fluoro-6-methylphenyl]-6-ethoxy-2,5-dihydro-4H-pyrazolo[3,4-d]pyrimidin-4-one], in test [1], the inhibition at 0.3 µM worked out at 98%. This compound also displayed an IC50 in test [2] greater than 30 µM.
Take `COCCc1nc2nn(-c3c(F)cc(C4CC4)cc3C(F)F)cc2c(=O)[nH]1` [Example 300, 2-[4-cyclopropyl-2-(difluoromethyl)-6-fluorophenyl]-6-(2-methoxyethyl)-2,5-dihydro-4H-pyrazolo[3,4-d]pyrimidin-4-one]: in test [1], the inhibition at 6 µM came to 99%. For the same compound, the IC50 in test [2] is greater than 30 µM.
For the compound `CCOc1nc2nn(-c3c(Br)cc(OC(F)F)cc3C(F)F)cc2c(=O)[nH]1` [Example 184, 2-[2-bromo-4-(difluoromethoxy)-6-(difluoromethyl)phenyl]-6-ethoxy-2,5-dihydro-4H-pyrazolo[3,4-d]pyrimidin-4-one], in test [1], the inhibition at 0.3 µM stood at 94%. The compound also yielded an IC50 in test [2] greater than 30 µM.
For `Cc1cc(C)c(-n2cc3c(=O)[nH]c(C4CCCO4)nc3n2)c(O)c1` (stereo not drawn) [Example 29, 2-(2-hydroxy-4,6-dimethylphenyl)-6-(oxolan-2-yl)-2,5-dihydro-4H-pyrazolo[3,4-d]pyrimidin-4-one], in that order: 97% and greater than 30 µM.
As to `Cc1ncc(-c2nc3nn(-c4c(C)cc(C5CC5)cc4C)cc3c(=O)[nH]2)o1` [Example 273, 2-(4-cyclopropyl-2,6-dimethylphenyl)-6-(2-methyl-1,3-oxazol-5-yl)-2,5-dihydro-4H-pyrazolo[3,4-d]pyrimidin-4-one], the inhibition at 6 µM in test [1] turned out to be 99%. For the same compound, the IC50 in test [2] is greater than 30 µM.
With `CCOc1nc2nn(-c3ccc(C)cc3OCC(F)F)cc2c(=O)[nH]1` [Example 98, 2-[2-(2,2-difluoroethoxy)-4-methylphenyl]-6-ethoxy-2,5-dihydro-4H-pyrazolo[3,4-d]pyrimidin-4-one], the inhibition at 0.3 µM in test [1] was 44%. In addition, the IC50 in test [2] is greater than 30 µM.
`CCn1ncc(-c2nc3nn(-c4c(C)cc(C5CC5)cc4C)cc3c(=O)[nH]2)n1` [Example 257, 2-(4-cyclopropyl-2,6-dimethylphenyl)-6-(2-ethyl-2H-1,2,3-triazol-4-yl)-2,5-dihydro-4H-pyrazolo[3,4-d]pyrimidin-4-one]: the inhibition at 6 µM in test [1] turned out to be 99%. In addition, the IC50 in test [2] was greater than 30 µM.

The record behind these values is patent US20260297092A1, “PYRAZOLOPYRIMIDINE DERIVATIVES AS INHIBITORS OF NLRP3” (Takeda Pharmaceutical Company Limited, priority 2023, published 2026).
